Results taken from US20130344501A1, “METHODS FOR PRODUCING THREE-DIMENSIONAL PHYSIOLOGICALLY RELEVANT IMMUNE TISSUE SYSTEMS UNDER LOW FLUID SHEAR CONDITIONS” (priority 2010, published 2013).

Columns and labels:
[1] = test system: three-dimensional A549 and three-dimensional A549-U937 cultures; assay type: in vitro ADME, human; details: original concentration 100 μM
Method: (§1) Following exposure of three-dimensional cultures and monocytes to 3-oxo-C12 HSL, cell-free samples were taken and stored at −20° C. at indicated time points. The remaining 3-oxo-C12 HSL concentration was assessed as previously described (Crabbé et al., 2008) using the indicator strain E. coli harboring the reporter plasmid pUCP22NotI-PlasB::gfp(ASV)Plac::lasR (Hentzer et al., 2002). A 3-oxo-C12 HSL standard series was included ranging from 1.63 to 100 μM. Culture medium containing microcarrier beads was used as a control to normalize for bioadsorption.

[2] = test system: U937 cultures; assay type: in vitro ADME, human; details: compared to three-dimensional A549 and A549-U937 cultures
Method: as §1

[3] = test system: U937 cells; assay: Cell viability of U937 monocytes cultured alone (with or without microcarrier beads) after exposure to 3-oxo-C12 HSL, flow cytometry; assay type: cell-based, human; details: for Percentage viability, U937: U937 cells exposed alone, mean ± SD, N=3; for Percentage viability, U937 / Percentage viability, U937 + beads: 20 hour exposure; for Percentage viability, U937 + beads: U937 in the presence of microcarrier beads
Method: (§2) Assessment of live-, apoptotic-, and necrotic cell populations was performed with the annexin V-propidium iodide (PI) kit for flow cytometry analysis (ImmunoSource) according to the manufacturer's instructions.
(§3) Stained cell suspensions were analyzed with an EPICS XL flow cytometer (Beckman-Coulter) or a Cytomics FC 500 system (Beckman-Coulter), equipped with an argon laser and filters for adequate excitation of the chosen fluorophores. Forward scatter, side scatter, FITC-, PI and PE-Cy5 emissions were measured and a total of 10,000 cells were recorded for each sample. The respective cell populations were delimited to eliminate background signals originating from cell debris. To assess background fluorescent signals from the tested cell populations, non-stained samples were included.
After 72 hours of co-cultivation, aggregates containing 2×10^6 cells were seeded into 6-well plates containing fresh medium (5 ml total volume). Subsequently, aggregates were spiked with 5, 10 or 100 μM 3-oxo-C12 HSL (Sigma-Aldrich) (starting from a 20 mM stock solution in DMSO, stored at −20° C.). Equal volumes of DMSO, containing the respective amounts of 3-oxo-C12 HSL, were added to each well (25 μl) and a solvent control (25 μl DMSO) was included in each experiment. Six-well plates were placed at 37° C. in a 5% CO2 environment and incubated for 20 hours. For exposure assays of monocytes to 3-oxo-C12 HSL, 2×10^6 U937 cells/well were transferred in 6-well plates. To assess the influence of 3-oxo-C12 HSL on monocytes cultured on microcarrier beads, collagen I-coated beads were added to the cells at the same concentration as for seeding three-dimensional cultures (1 bead per 2500 cells). Subsequently, monocyte cultures (with or without microcarrier beads) were spiked with 3-oxo-C12 HSL (see above). A solvent control was included. […] Cell viability was assayed with trypan blue (0.4%) (Sigma) and/or with the annexin V-PI kit (ImmunoSource) (see above). […] FIG. 9B are examples of the three-dimensional A549-U937 co-culture model exposed to 100 μM 3-oxo-C12 HSL and to the solvent control DMSO. The presented cell population is gated for CD45 positive cells and thus only includes monocytes/macrophages. For FIGS. 9A-B, “I” represents the percentage of dead cells, while “H” is the viable cell population. Consequently, cell viability was further assessed based on the shift in forward scatter signal (see Table 1).

[4] = test system: A549 cells in A549-U937 3-D co-culture; assay: Viability of A549 epithelial cells in the three-dimensional A549-U937 co-culture after exposure to 3-oxo-C12 HSL; assay type: cell-based, human; details: A549 co-cultured three-dimensionally with U937, 20 hour exposure
Method: A549 three-dimensional aggregates were grown as described above and after 9 days of three-dimensional A549 cultivation, undifferentiated U937 monocytes were added to the HARV as follows. three-dimensional A549 cells were counted by trypsinization of an aggregate sample and U937 cells (grown in T75 flasks) were added in a 1:1 ratio to the three-dimensional A549 culture. A549 and U937 cells were co-cultured in the HARV at 20 rpm for 72 h. After addition of the monocytes, culture medium was changed after 48 hours of co-cultivation where after medium was replenished every 24 hours.
as §2, §3
After 72 hours of co-cultivation, aggregates containing 2×10^6 cells were seeded into 6-well plates containing fresh medium (5 ml total volume). Subsequently, aggregates were spiked with 5, 10 or 100 μM 3-oxo-C12 HSL (Sigma-Aldrich) (starting from a 20 mM stock solution in DMSO, stored at −20° C.). Equal volumes of DMSO, containing the respective amounts of 3-oxo-C12 HSL, were added to each well (25 μl) and a solvent control (25 μl DMSO) was included in each experiment. Six-well plates were placed at 37° C. in a 5% CO2 environment and incubated for 20 hours. […] Consequently, cell viability was further assessed based on the shift in forward scatter signal (see Table 1).

SMILES: CCCCCCCCCC(=O)CC(=O)N[C@H]1CCOC1=O [3-oxo-C12 HSL, N-(3-oxododecanoyl)-Lhomoserine lactone]
- remaining fraction of the original 3-oxo-C12 HSL concentration ([1]; after 2 hours of exposure): 30%
- residual 3-oxo-C12 HSL ([1]; after 20 hours of exposure): no residual 3-oxo-C12 HSL could be detected
- change of 3-oxo-C12 HSL concentration over time [2]: minimal differences in 3-oxo-C12 HSL concentration over time
- loss of viability of pure cultures of U937 cells ([3]; 100 μM, after 2 hours of exposure): started to show significant loss of viability
- viability of pure cultures of U937 cells ([3]; 100 μM, after 5 hours of exposure): 50%
- Percentage viability, U937 ([3]; 5 μM): 82.8 ± 0.2%
- Percentage viability, U937 ([3]; 10 μM): 75.6 ± 0.6%
- Percentage viability, U937 + beads ([3]; 5 μM): 89.1 ± 1.4%
- Percentage viability, U937 + beads ([3]; 10 μM): 90.9 ± 0.4%
- Percentage viability, U937 + beads ([3]; 100 μM): 5.3 ± 0.4%
- monocyte cell viability ([3]; lower concentrations, 5 μM and 10 μM): did not induce significant differences
- Percentage viability, A549-U937 3-D, A549 ([4]; 5 μM): 90.3 ± 0.01%
- Percentage viability, A549-U937 3-D, A549 ([4]; 10 μM): 92.6 ± 0.00%
- Percentage viability, A549-U937 3-D, A549 ([4]; 100 μM): 84.3 ± 0.00%
